± gives the expanded uncertainty stated by the source.
Experiment: mn = molality of the nth substance listed, in mol/kg
Details: 101 kPa, Liquid; for mass density: Vibrating tube method; for speed of sound: Pulse-echo method

O=S(=O)([O-])C(F)(F)F.O=S(=O)([O-])C(F)(F)F.O=S(=O)([O-])C(F)(F)F.[La+3] [lanthanum(III) trifluoromethanesulfonate] + CN(C)C=O
Details | mass density, 283.15 K [kg/m3] | mass density, 293.15 K [kg/m3] | mass density, 298.15 K [kg/m3] | mass density, 303.15 K [kg/m3] | mass density, 313.15 K [kg/m3] | mass density, 323.15 K [kg/m3] | mass density, 333.15 K [kg/m3] | speed of sound, 298.15 K [m/s]
m1 = 0.02162 | 966.85 ± 0.85 | 957.33 ± 0.85 | 952.56 ± 0.85 | 947.79 ± 0.85 | 938.21 ± 0.85 | 928.58 ± 0.85 | 918.9 ± 0.85 | 1456 ± 1.3
m1 = 0.02944 | 970.04 ± 0.85 | 960.51 ± 0.85 | 955.75 ± 0.85 | 950.97 ± 0.85 | 941.39 ± 0.85 | 931.77 ± 0.85 | 922.1 ± 0.85 | 1455.5 ± 1.3
m1 = 0.03946 | 974.16 ± 0.86 | 964.64 ± 0.86 | 959.87 ± 0.86 | 955.09 ± 0.86 | 945.5 ± 0.86 | 935.87 ± 0.86 | 926.19 ± 0.86 | 1455 ± 1.3
m1 = 0.04997 | 978.49 ± 0.86 | 968.96 ± 0.86 | 964.2 ± 0.86 | 959.42 ± 0.86 | 949.83 ± 0.86 | 940.2 ± 0.86 | 930.52 ± 0.86 | 1454.3 ± 1.3
m1 = 0.06066 | – | – | – | – | – | – | – | 1453.6 ± 1.3
m1 = 0.0607 | 982.91 ± 0.87 | 973.38 ± 0.87 | 968.61 ± 0.87 | 963.83 ± 0.87 | 954.24 ± 0.87 | 944.62 ± 0.87 | 934.95 ± 0.87 | –
m1 = 0.07649 | 989.57 ± 0.89 | 980.03 ± 0.88 | 975.24 ± 0.88 | 970.46 ± 0.88 | 960.87 ± 0.88 | 951.24 ± 0.88 | 941.56 ± 0.88 | 1452.5 ± 1.3
m1 = 0.09777 | 998.57 ± 0.9 | 989.02 ± 0.9 | 984.24 ± 0.9 | 979.46 ± 0.9 | 969.86 ± 0.89 | 960.23 ± 0.89 | 950.54 ± 0.89 | 1450.8 ± 1.3
m1 = 0.1172 | 1006.98 ± 0.92 | 997.41 ± 0.91 | 992.63 ± 0.91 | 987.84 ± 0.91 | 978.22 ± 0.91 | 968.57 ± 0.91 | 958.88 ± 0.91 | 1449.4 ± 1.3
m1 = 0.136 | 1015.16 ± 0.93 | 1005.59 ± 0.93 | 1000.8 ± 0.93 | 996 ± 0.93 | 986.37 ± 0.93 | 976.72 ± 0.93 | 967.03 ± 0.92 | 1448 ± 1.4
m1 = 0.1591 | 1025.46 ± 0.95 | 1015.87 ± 0.95 | 1011.07 ± 0.95 | 1006.26 ± 0.94 | 996.63 ± 0.94 | 986.96 ± 0.94 | 977.26 ± 0.94 | 1446.3 ± 1.4
m1 = 0.1792 | 1034.5 ± 0.96 | 1024.89 ± 0.96 | 1020.09 ± 0.96 | 1015.28 ± 0.95 | 1005.64 ± 0.95 | 995.97 ± 0.95 | 986.26 ± 0.95 | 1444.9 ± 1.4

O=S(=O)([O-])C(F)(F)F.[Na+] [sodium trifluoromethanesulfonate] + CC(=O)N(C)C
Details | mass density, 283.15 K [kg/m3] | mass density, 293.15 K [kg/m3] | mass density, 298.15 K [kg/m3] | mass density, 303.15 K [kg/m3] | mass density, 313.15 K [kg/m3] | mass density, 323.15 K [kg/m3] | mass density, 333.15 K [kg/m3] | speed of sound, 298.15 K [m/s]
m1 = 0.03102 | 953.06 ± 0.3 | 943.85 ± 0.3 | 939.25 ± 0.3 | 934.64 ± 0.3 | 925.39 ± 0.31 | 916.13 ± 0.31 | 906.83 ± 0.31 | –
m1 = 0.04251 | 954.18 ± 0.31 | 944.96 ± 0.3 | 940.36 ± 0.3 | 935.76 ± 0.31 | 926.52 ± 0.31 | 917.26 ± 0.31 | 907.96 ± 0.31 | –
m1 = 0.05604 | 955.5 ± 0.31 | 946.28 ± 0.31 | 941.68 ± 0.31 | 937.08 ± 0.31 | 927.84 ± 0.31 | 918.59 ± 0.31 | 909.29 ± 0.31 | 1456 ± 1.2
m1 = 0.07266 | 957.11 ± 0.31 | 947.9 ± 0.31 | 943.3 ± 0.31 | 938.69 ± 0.31 | 929.46 ± 0.31 | 920.21 ± 0.31 | 910.92 ± 0.31 | 1455.8 ± 1.3
m1 = 0.08844 | 958.64 ± 0.31 | 949.43 ± 0.31 | 944.83 ± 0.31 | 940.23 ± 0.31 | 931 ± 0.31 | 921.75 ± 0.31 | 912.46 ± 0.31 | 1455.7 ± 1.3
m1 = 0.1113 | 960.86 ± 0.31 | 951.66 ± 0.31 | 947.06 ± 0.31 | 942.45 ± 0.31 | 933.22 ± 0.31 | 923.98 ± 0.31 | 914.7 ± 0.31 | 1455.5 ± 1.3
m1 = 0.1446 | 964.1 ± 0.32 | 954.89 ± 0.31 | 950.29 ± 0.31 | 945.68 ± 0.31 | 936.46 ± 0.32 | 927.21 ± 0.31 | 917.94 ± 0.32 | 1455.2 ± 1.3
m1 = 0.174 | 966.97 ± 0.32 | 957.75 ± 0.32 | 953.15 ± 0.32 | 948.54 ± 0.32 | 939.35 ± 0.32 | 930.09 ± 0.32 | 920.85 ± 0.32 | 1455 ± 1.3
m1 = 0.2018 | 969.69 ± 0.32 | 960.49 ± 0.32 | 955.89 ± 0.32 | 951.28 ± 0.32 | 942.06 ± 0.32 | 932.83 ± 0.32 | 923.57 ± 0.32 | 1454.7 ± 1.3
m1 = 0.2378 | 973.2 ± 0.33 | 964 ± 0.33 | 959.39 ± 0.33 | 954.79 ± 0.33 | 945.58 ± 0.33 | 936.36 ± 0.33 | 927.11 ± 0.33 | 1454.3 ± 1.3
m1 = 0.2675 | 976.18 ± 0.33 | 966.97 ± 0.33 | 962.37 ± 0.33 | 957.77 ± 0.33 | 948.55 ± 0.33 | 939.32 ± 0.33 | 930.07 ± 0.33 | 1453.9 ± 1.3

O=S(=O)([O-])C(F)(F)F.[Na+] [sodium trifluoromethanesulfonate] + CN(C)C=O
Details | mass density, 283.15 K [kg/m3] | mass density, 293.15 K [kg/m3] | mass density, 298.15 K [kg/m3] | mass density, 303.15 K [kg/m3] | mass density, 313.15 K [kg/m3] | mass density, 323.15 K [kg/m3] | mass density, 333.15 K [kg/m3] | speed of sound, 298.15 K [m/s]
m1 = 0.03242 | 961.31 ± 0.31 | 951.8 ± 0.31 | 947.04 ± 0.31 | 942.26 ± 0.31 | 932.69 ± 0.31 | 923.07 ± 0.31 | 913.39 ± 0.31 | –
m1 = 0.04301 | 962.37 ± 0.31 | 952.86 ± 0.31 | 948.1 ± 0.31 | 943.33 ± 0.31 | 933.75 ± 0.31 | 924.13 ± 0.31 | 914.46 ± 0.31 | –
m1 = 0.05649 | 963.72 ± 0.31 | 954.21 ± 0.31 | 949.44 ± 0.31 | 944.67 ± 0.31 | 935.1 ± 0.31 | 925.48 ± 0.31 | 915.81 ± 0.31 | –
m1 = 0.07002 | 965.07 ± 0.31 | 955.56 ± 0.31 | 950.8 ± 0.31 | 946.03 ± 0.31 | 936.46 ± 0.31 | 926.83 ± 0.31 | 917.16 ± 0.31 | 1456.8 ± 1.3
m1 = 0.08981 | 967.04 ± 0.31 | 957.54 ± 0.31 | 952.77 ± 0.31 | 948 ± 0.31 | 938.43 ± 0.31 | 928.81 ± 0.31 | 919.14 ± 0.31 | 1456.7 ± 1.3
m1 = 0.1114 | 969.21 ± 0.32 | 959.69 ± 0.32 | 954.93 ± 0.32 | 950.16 ± 0.32 | 940.6 ± 0.32 | 930.98 ± 0.32 | 921.31 ± 0.32 | 1456.6 ± 1.3
m1 = 0.1445 | 972.54 ± 0.32 | 963.02 ± 0.32 | 958.25 ± 0.32 | 953.48 ± 0.32 | 943.91 ± 0.32 | 934.29 ± 0.32 | 924.63 ± 0.32 | 1456.4 ± 1.3
m1 = 0.1748 | 975.61 ± 0.32 | 966.08 ± 0.32 | 961.32 ± 0.32 | 956.54 ± 0.32 | 946.97 ± 0.32 | 937.35 ± 0.32 | 927.69 ± 0.32 | 1456.2 ± 1.3
m1 = 0.2026 | 978.41 ± 0.33 | 968.91 ± 0.33 | 964.12 ± 0.33 | 959.34 ± 0.33 | 949.76 ± 0.32 | 940.13 ± 0.32 | 930.5 ± 0.32 | 1456.1 ± 1.3
m1 = 0.239 | 982.12 ± 0.33 | 972.58 ± 0.33 | 967.82 ± 0.33 | 963.03 ± 0.33 | 953.44 ± 0.33 | 943.82 ± 0.33 | 934.15 ± 0.33 | 1455.9 ± 1.3
m1 = 0.2681 | 985.09 ± 0.33 | 975.55 ± 0.33 | 970.79 ± 0.33 | 966.01 ± 0.33 | 956.41 ± 0.33 | 946.79 ± 0.33 | 937.1 ± 0.33 | 1455.7 ± 1.3
